# In PubChem BioAssay (NCI):
#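 Interpolation was linear, between the two tested concentrations surrounding the appropriate level; five concentrations were tested over 48 hours in 96-well plates. Definition used: TGI = concentration required for complete inhibition of growth.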
# Assays:
# Assay in all cases: DTP human tumour cell line panel, 48 h
# [1] = system: 786-0 renal
# [2] = system: A498 renal
# [3] = system: A549 NSCLC
# [4] = system: ACHN renal
# [5] = system: CCRF-CEM leukemia
# [6] = system: COLO 205 colon
# [7] = system: DU-145 prostate
# [8] = system: EKVX NSCLC
# [9] = system: HCC-2998 colon
# [10] = system: HCT-116 colon
# [11] = system: HCT-15 colon
# [12] = system: HL-60(TB) leukemia
# [13] = system: HOP-62 NSCLC
# [14] = system: HOP-92 NSCLC
# [15] = system: HS 578T breast
# [16] = system: HT29 colon
# [17] = system: IGROV1 ovarian
# [18] = system: K-562 leukemia
# [19] = system: KM12 colon
# [20] = system: LOX IMVI melanoma
# [21] = system: M14 melanoma
# [22] = system: MCF7 breast
# [23] = system: MDA-MB-231 breast
# [24] = system: MDA-MB-435
# [25] = system: MDA-N
# [26] = system: MOLT-4 leukemia
# [27] = system: NCI-H226 lung
# [28] = system: NCI-H23 lung
# [29] = system: NCI-H460 lung
# [30] = system: NCI-H522 lung
# [31] = system: NCI/ADR-RES ovarian
# [32] = system: OVCAR-3 ovarian
# [33] = system: OVCAR-4 ovarian
# [34] = system: OVCAR-5 ovarian
# [35] = system: OVCAR-8 ovarian
# [36] = system: PC-3 prostate
# [37] = system: RPMI-8226 leukemia
# [38] = system: RXF 393 renal
# [39] = system: SF-268 CNS
# [40] = system: SF-295 CNS
# [41] = system: SF-539 CNS
# [42] = system: SK-MEL-2 melanoma
# [43] = system: SK-MEL-28 melanoma
# [44] = system: SK-MEL-5 melanoma
# [45] = system: SK-OV-3 ovarian
# [46] = system: SN12C renal
# [47] = system: SNB-19 CNS
# [48] = system: SNB-75 CNS
# [49] = system: SW-620 colon
# [50] = system: T-47D breast
# [51] = system: TK-10 renal
# [52] = system: U251 CNS
# [53] = system: UACC-257 melanoma
# [54] = system: UACC-62 melanoma
# [55] = system: UO-31 renal
# [56] = system: MALME-3M melanoma
# [57] = system: SR leukemia
structure (smiles),measurement,setting,value
CC(=O)Oc1c(C)cc2c(c1C)C(C)CN2C(C)=O (stereo not drawn),TGI,[1],> 100 µM
same,TGI,[2],> 100 µM
same,TGI,[3],> 100 µM
same,TGI,[4],> 100 µM
same,TGI,[5],> 100 µM
same,TGI,[6],> 100 µM
same,TGI,[7],> 100 µM
same,TGI,[8],> 100 µM
same,TGI,[9],> 100 µM
same,TGI,[10],> 100 µM
same,TGI,[11],> 100 µM
same,TGI,[12],> 100 µM
same,TGI,[13],> 100 µM
same,TGI,[14],> 100 µM
same,TGI,[15],> 100 µM
same,TGI,[16],> 100 µM
same,TGI,[17],> 100 µM
same,TGI,[18],> 100 µM
same,TGI,[19],> 100 µM
same,TGI,[20],> 100 µM
same,TGI,[21],> 100 µM
same,TGI,[22],> 100 µM
same,TGI,[23],> 100 µM
same,TGI,[24],> 100 µM
same,TGI,[25],> 100 µM
same,TGI,[26],> 100 µM
same,TGI,[27],> 100 µM
same,TGI,[28],> 100 µM
same,TGI,[29],> 100 µM
same,TGI,[30],> 100 µM
same,TGI,[31],> 100 µM
same,TGI,[32],> 100 µM
same,TGI,[33],> 100 µM
same,TGI,[34],> 100 µM
same,TGI,[35],> 100 µM
same,TGI,[36],> 100 µM
same,TGI,[37],> 100 µM
same,TGI,[38],> 100 µM
same,TGI,[39],> 100 µM
same,TGI,[40],> 100 µM
same,TGI,[41],> 100 µM
same,TGI,[42],> 100 µM
same,TGI,[43],> 100 µM
same,TGI,[44],> 100 µM
same,TGI,[45],> 100 µM
same,TGI,[46],> 100 µM
same,TGI,[47],> 100 µM
same,TGI,[48],> 100 µM
same,TGI,[49],> 100 µM
same,TGI,[50],> 100 µM
same,TGI,[51],> 100 µM
same,TGI,[52],> 100 µM
same,TGI,[53],> 100 µM
same,TGI,[54],> 100 µM
same,TGI,[55],> 100 µM
C=CCC(NCc1ccccc1)[C@H](OCc1ccccc1)[C@@H]1COC(C)(C)O1 (stereo partly drawn),TGI,[1],> 100 µM
same,TGI,[2],> 100 µM
same,TGI,[3],> 100 µM
same,TGI,[4],> 100 µM
same,TGI,[5],69.9 µM
same,TGI,[6],41.3 µM
same,TGI,[7],> 100 µM
same,TGI,[8],> 100 µM
same,TGI,[10],> 100 µM
same,TGI,[11],64.9 µM
same,TGI,[13],> 100 µM
same,TGI,[14],49 µM
same,TGI,[15],> 100 µM
same,TGI,[16],27.1 µM
same,TGI,[17],> 100 µM
same,TGI,[18],56.4 µM
same,TGI,[19],> 100 µM
same,TGI,[20],72 µM
same,TGI,[21],> 100 µM
same,TGI,[56],76.7 µM
same,TGI,[22],> 100 µM
same,TGI,[23],> 100 µM
same,TGI,[24],> 100 µM
same,TGI,[25],> 100 µM
same,TGI,[26],83.1 µM
same,TGI,[27],34.1 µM
same,TGI,[28],> 100 µM
same,TGI,[31],> 100 µM
same,TGI,[32],> 100 µM
same,TGI,[33],> 100 µM
same,TGI,[34],> 100 µM
same,TGI,[35],> 100 µM
same,TGI,[36],> 100 µM
same,TGI,[37],44.4 µM
same,TGI,[39],> 100 µM
same,TGI,[40],99.6 µM
same,TGI,[42],46 µM
same,TGI,[43],> 100 µM
same,TGI,[44],55.2 µM
same,TGI,[45],> 100 µM
same,TGI,[46],> 100 µM
same,TGI,[47],> 100 µM
same,TGI,[48],> 100 µM
same,TGI,[57],55 µM
same,TGI,[49],> 100 µM
same,TGI,[51],70.8 µM
same,TGI,[52],> 100 µM
same,TGI,[53],58.1 µM
same,TGI,[54],> 100 µM
same,TGI,[55],83.1 µM
CC(=O)OCC1OC(n2c(C)c(C(C)=O)c(-c3ccc(Cl)cc3)c(C#N)c2=S)C(OC(C)=O)C(OC(C)=O)C1OC(C)=O (stereo not drawn),TGI,[1],> 100 µM
same,TGI,[2],> 100 µM
same,TGI,[3],> 100 µM
same,TGI,[4],> 100 µM
same,TGI,[5],> 100 µM
same,TGI,[6],> 100 µM
same,TGI,[7],> 100 µM
same,TGI,[9],> 100 µM
same,TGI,[10],> 100 µM
same,TGI,[11],> 100 µM
same,TGI,[12],> 100 µM
same,TGI,[13],> 100 µM
same,TGI,[14],> 100 µM
same,TGI,[16],> 100 µM
same,TGI,[17],> 100 µM
same,TGI,[18],> 100 µM
same,TGI,[19],> 100 µM
same,TGI,[20],> 100 µM
same,TGI,[21],> 100 µM
same,TGI,[56],> 100 µM
same,TGI,[22],> 100 µM
same,TGI,[23],> 100 µM
same,TGI,[24],> 100 µM
same,TGI,[25],> 100 µM
same,TGI,[26],> 100 µM
same,TGI,[27],> 100 µM
same,TGI,[28],> 100 µM
same,TGI,[29],> 100 µM
same,TGI,[30],> 100 µM
same,TGI,[31],> 100 µM
same,TGI,[32],> 100 µM
same,TGI,[33],> 100 µM
same,TGI,[35],> 100 µM
same,TGI,[36],> 100 µM
same,TGI,[38],> 100 µM
same,TGI,[39],> 100 µM
same,TGI,[40],> 100 µM
same,TGI,[41],> 100 µM
same,TGI,[42],> 100 µM
same,TGI,[43],> 100 µM
same,TGI,[44],> 100 µM
same,TGI,[45],> 100 µM
same,TGI,[46],> 100 µM
same,TGI,[47],> 100 µM
same,TGI,[48],> 100 µM
same,TGI,[57],> 100 µM
same,TGI,[49],> 100 µM
same,TGI,[50],> 100 µM
same,TGI,[51],> 100 µM
same,TGI,[52],> 100 µM
same,TGI,[53],> 100 µM
same,TGI,[54],> 100 µM
same,TGI,[55],> 100 µM
